Assay [1] has as its target T1, DNA polymerase 1 (Klenow Fragment, KF) (Escherichia coli, UniProt P00582, L790C).
T1 construct: a cysteine variant of the Klenow fragment of DNA polymerase 1 (KF); made in house
Description: DNA polymerase I (Klenow fragment) single molecule device, nucleotide incorporation. Particulars: for turnover rate / τ hi / τ lo: homopolymer DNA substrate with complementary nucleotide; for average ΔI signal amplitude of incorporation, rank among four bases: FIG. 16C. It is filed as biochemical, E. Coli. As for the experimental part:
The linker molecule is pyrene maleimide, with the pyrene functional group non-covalently attached to the SWNT sidewall. The single sensitizing molecule is a cysteine variant of the Klenow fragment of DNA polymerase 1 (KF) derived from E. Coli, which contains a single inserted cysteine at site 790 to provide a reactive thiol for bio-conjugation. The cysteine variant of KF was synthesized by methods known in the art. A 0.2 mg/mL solution of the cysteine variant of KF in activation buffer (10 mM Tris-HCl, 10 mM MgCl2, 50 mM NaCl, 1 mM DTT, pH 7.9) is prepared. Devices dilutely coated with the linker molecule pyrene maleimide non-covalently attached to the SWNT were soaked in the KF solution at room temperature for 60 minutes without agitation. Devices were then soaked in wash buffer (10 mM Tris-HCl, 10 mM MgCl2, 50 mM NaCl, 0.1 mM TCEP, 0.1% polysorbate 20, pH 7.9) for 30 minutes with shaking to remove unattached KF. Devices were finally rinsed under flowing activation buffer for 5 minutes and stored in this solution until used. These conditions lead to a density of approximately one KF molecule per micrometer of exposed SWNT.
In the preferred embodiment of Example 3, the sensitizing molecule is DNA polymerase 1 (Klenow Fragment, KF), and the chemical environment is a 100 nM solution of deoxyribonucleic acid (DNA) template and 100 μM deoxyribonucleotide triphosphate (dNTP) in buffer (50 mM NaCl, 10 mM MgCl2, 20 mM Tris, 10 mM dithiothreitol, pH 7.8). As before, high (Ihi) and low (Ilo) current values are observed during chemical activity and monitored in time. […] Transient pulses to a smaller current Ilo occur in the presence of chemical activity, which in this system requires the simultaneous presence of DNA template, dNTP to be incorporated, and Mg^2+ ions. Electrical transitions from Ihi to Ilo indicate the incorporation of one nucleotide into the template and can be statistically analyzed in the same ways as described for lysozyme.
FIGS. 15A-15D illustrate the signals produced by this embodiment when measured in buffer with different combinations of substrate and nucleotides. FIGS. 15A and 15B show the response of a KF sensitizing molecule measured with at least 10 nM polyC substrate and an excess of dGTP on 1 second and 0.1 second time scales, respectively. In the latter graph, the timing and amplitude of individual events are clearly resolved. Each event represents the addition of the nucleotide dGTP to the polyC substrate. FIGS. 15C and 15D show the same device measured with at least 10 nM polyA substrate and an excess of dTTP on identical time scales. On average, the individual events in FIG. 15D have shorter durations and higher amplitudes than the events in FIG. 15B. When either substrate or nucleotides are absent in these measurements, no transitions to Ilo are observed. Again, with reference to FIG. 15D, each event (dip in measured current) represents the addition of the nucleotide dTTP to the poly A substrate.
The device is capable of distinguishing all four types of base incorporation, and allows large numbers of individual events to be analyzed statistically. FIGS. 16A-16C illustrates typical types of analysis performed on data generated by a single KF protein in the presence of different combinations of DNA substrates and nucleotides. FIG. 16A plots the single-molecule probability distributions for the Ihi states of all four bases A, C, G, and T. Fits to each distribution are shown as solid lines and determine the mean value of τhi for each base pair. FIG. 16B plots the distributions for the four Ilo states and gives the values of τlo. The values of τhi are much longer than τlo and therefore they determine the overall turnover rate of the KF protein for a particular type of base. The data distinguish dGTP and dCTP as having shorter incorporation times and faster turnover rates than either dTTP or dATP. […]

Assay [2] has as its target T2, lysozyme (Enterobacteria phage T4, UniProt P00720, C54T/C97A/S90C).
T2 construct: made in house
It is filed as biochemical.
Description: The single sensitizing molecule is a cysteine variant of T4 lysozyme which contains a single substituted cysteine as the mutation S90C to provide a reactive thiol for bio-conjugation. […] A 54 μM solution of the cysteine variant of T4 lysozyme in phosphate buffer (20 mM Na2HPO4, pH 7) is prepared. Devices dilutely coated with the linker molecule pyrene maleimide non-covalently attached to the SWNT were soaked in the lysozyme solution at room temperature for 60 minutes without agitation. Devices were then soaked in wash buffer (5 mM KCl, 10 mM Na2HPO4, 0.05% polysorbate 20, pH 7) for 30 minutes with shaking to remove unattached lysozyme. Devices were finally rinsed under flowing de-ionized water for 5 minutes.

Assay [3] is described as follows: single molecule sensing device, lysozyme processing peptidoglycan (current fluctuations). It is filed as biochemical. How it is done:
The linker molecule is pyrene maleimide, with the pyrene functional group non-covalently attached to the SWNT sidewall. The single sensitizing molecule is a cysteine variant of T4 lysozyme which contains a single substituted cysteine as the mutation S90C to provide a reactive thiol for bio-conjugation. The cysteine variant of T4 lysozyme was synthesized by methods known in the art. A 54 μM solution of the cysteine variant of T4 lysozyme in phosphate buffer (20 mM Na2HPO4, pH 7) is prepared. Devices dilutely coated with the linker molecule pyrene maleimide non-covalently attached to the SWNT were soaked in the lysozyme solution at room temperature for 60 minutes without agitation. Devices were then soaked in wash buffer (5 mM KCl, 10 mM Na2HPO4, 0.05% polysorbate 20, pH 7) for 30 minutes with shaking to remove unattached lysozyme. Devices were finally rinsed under flowing de-ionized water for 5 minutes. These conditions lead to a density of approximately one T4 lysozyme molecule per micrometer of exposed SWNT.
The fully fabricated device is used by submerging the device in a gaseous or liquid environment. Temperature of the environment should be controlled and held constant and, in the case of liquids, so should the pH and electrochemical potential. An electrical bias is created and held constant between the source and the drain electrode. The current between the source, and the drain is measured over time and collected as control data points. The device is then exposed to a different chemical environment, and the levels of the current between the source and the drain is measured over time collected as experimental data points.
In the embodiment of Example 2, the sensitizing molecule was lysozyme, and the chemical environment is 25 μg/ml peptidoglycan substrate in PBS buffer. The high (Ihi) and the low current values (Ilo) after the device is exposed to the peptidoglycan are measured over time. The parameters of the relative difference ΔI=(Ihi−Ilo)/Ilo are statistically analyzed, and have been determined to be the most reliable way to analyze the conformational changes in the sensitizing molecule. […] Ihi, on the other hand, is substantially larger and is assigned to the mechanically-closed conformation of lysozyme around a bound peptidoglycan molecule. Electrical transitions from Ilo to Ihi indicate the hinge-like closure of lysozyme as it attempts to catalytically cleave a glycosidic bond of the peptidoglycan.
In the more preferred embodiment, oscillations in the electrical current between Ilo and Ihi occur with a broad distribution of stochastic durations that mirror the enzyme's activity. Sequences of ten or more oscillations can be categorized into one of two activity types, one slow and one fast. The slow oscillation corresponds to productive enzyme activity where the enzyme is successfully cleaving bonds of the peptidoglycan. […] The amplitude of the signal ΔI is nearly the same in both slow and fast oscillations and is measured to be nearly constant, which supports a conclusion that the same range of molecular motion is being measured for both types of activity. This concurs with data from FRET which has previously proven that the range of mechanical motion in lysozyme is the same for both types of activity.
FIG. 2A illustrates an extended sequence of current fluctuation over 30 seconds, with the mean value highlighted using the setup of Example 2. […] The fast oscillations occur on average 300 times per second. The slow oscillations occur on average 15 times per second. The exact rate of either oscillation varies from one conformation to another, so that long-duration measurements observe the conversion of the enzyme to different possible rates. In different minutes of measurement, the same protein can undergo slow oscillations varying from 10 to 80 times per second.
FIG. 4 summarizes the data with mean values of τlo and τhi. Another figure of merit for each parameter is the statistical variance. […]

T1 sequence (P00582 324-928 L790C): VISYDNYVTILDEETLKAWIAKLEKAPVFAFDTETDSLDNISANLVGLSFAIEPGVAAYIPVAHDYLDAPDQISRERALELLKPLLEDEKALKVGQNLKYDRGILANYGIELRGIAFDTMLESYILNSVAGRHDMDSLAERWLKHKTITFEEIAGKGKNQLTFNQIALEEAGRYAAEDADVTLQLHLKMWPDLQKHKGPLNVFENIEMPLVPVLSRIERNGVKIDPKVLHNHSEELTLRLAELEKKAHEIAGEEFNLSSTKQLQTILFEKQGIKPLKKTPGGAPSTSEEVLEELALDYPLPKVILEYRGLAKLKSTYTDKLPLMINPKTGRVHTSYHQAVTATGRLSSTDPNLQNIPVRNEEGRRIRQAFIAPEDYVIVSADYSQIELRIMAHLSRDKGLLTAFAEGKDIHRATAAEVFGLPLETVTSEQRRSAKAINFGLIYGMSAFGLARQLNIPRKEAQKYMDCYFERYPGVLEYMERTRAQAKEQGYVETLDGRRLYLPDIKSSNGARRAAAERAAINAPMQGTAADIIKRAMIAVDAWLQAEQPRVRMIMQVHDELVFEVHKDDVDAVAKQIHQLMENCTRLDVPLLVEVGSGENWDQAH

Take `Nc1ccn([C@H]2C[C@H](O)[C@@H](COP(=O)(O)OP(=O)(O)OP(=O)(O)O)O2)c(=O)n1` [dCTP]: in assay [1], the turnover rate is 26.2 ± 4.4 s⁻¹, the τ hi is 39.0 ± 5.6 ms and the τ lo worked out at 0.32 ± 0.07 ms.

Turning to `O=C(O)CCc1c[nH]c2ccccc12` [I3P, indole-3-propionic acid], in assay [2] (10 mM I3P), the “pulse amplitude ΔI” value is given as “+20%” and the “pulse duration τhi” value is under 1 ms. The “interactions with inhibitor in electronic I(t) signals” value in assay [2] (weakly-interacting, non-covalent inhibitors) was “clearly observed”.

Take `Nc1ncnc2c1ncn2[C@H]1C[C@H](O)[C@@H](COP(=O)(O)OP(=O)(O)OP(=O)(O)O)O1` [dATP]: in assay [1], the “average ΔI signal amplitude of incorporation, rank among four bases” value is given as “largest”; the turnover rate is 14.4 ± 2.9 s⁻¹; the τ hi worked out at 71.4 ± 14.3 ms; the τ lo is listed as 0.33 ± 0.08 ms.

Regarding lysozyme, the normalized variance rhi is recorded as 0.48 ± 0.10 in assay [3] (Nonproductive (fast), pH 5); 0.43 ± 0.06 in assay [3] (Nonproductive (fast), pH 7); 0.61 ± 0.08 in assay [3] (Nonproductive (fast), pH 11); 0.68 ± 0.15 in assay [3] (Processing (slow), pH 5); 0.74 ± 0.12 in assay [3] (Processing (slow), pH 7); 0.60 ± 0.15 in assay [3] (Processing (slow), pH 11). In addition, the normalized variance rlo is 0.97 ± 0.13 in assay [3] (Nonproductive (fast), pH 5); 0.99 ± 0.09 in assay [3] (Nonproductive (fast), pH 7); 1.00 ± 0.10 in assay [3] (Nonproductive (fast), pH 11); 1.00 ± 0.18 in assay [3] (Processing (slow), pH 5); 1.06 ± 0.15 in assay [3] (Processing (slow), pH 7); 1.11 ± 0.23 in assay [3] (Processing (slow), pH 11). The “slow oscillations, average rate” value in assay [3] (catalytic processing, 25 μg/ml peptidoglycan in PBS) is 15 times per second. Moreover, the time spent processing was 88% in assay [3] (linear peptidoglycan substrate without crosslinks) and 51% in assay [3] (peptidoglycan substrate containing crosslinks). The “fast oscillations, average rate” value in assay [3] (nonproductive binding, 25 μg/ml peptidoglycan in PBS) amounted to 300 times per second.

`Nc1nc2c(ncn2[C@H]2C[C@H](O)[C@@H](COP(=O)(O)OP(=O)(O)OP(=O)(O)O)O2)c(=O)[nH]1` [dGTP]: in assay [1], the “average ΔI signal amplitude of incorporation, rank among four bases” value is “smallest”; the turnover rate came to 28.5 ± 3.5 s⁻¹; the τ hi was found to be 38.0 ± 5.8 ms; the τ lo was 0.33 ± 0.06 ms.

As to `Cc1cn([C@H]2C[C@H](O)[C@@H](COP(=O)(O)OP(=O)(O)OP(=O)(O)O)O2)c(=O)[nH]c1=O` [dTTP], in assay [1], the turnover rate came out at 16.0 ± 2.9 s⁻¹, the τ hi is reported as 63.7 ± 11.4 ms and the τ lo worked out at 0.42 ± 0.09 ms.

Values taken from patent US9164053B2, “Electronic device for monitoring single molecule dynamics” (THE REGENTS OF THE UNIVERSITY OF CALIFORNIA, priority 2011, dated 2015).
